Structures can show the parent of a compound that is named as a salt.
Assays:
[1] = target: human BACE1 (Homo sapiens, UniProt P56817); assay: BACE-1 fluorescent kinetic assay (cleavage of peptide substrate WABC-6); format: biochemical; details: 10 nM enzyme, 25 μM substrate WABC-6, Na-Acetate pH 4.5, room temperature
Description: Evaluation of BACE-1 Binding Affinity of Test Compounds
Fluorescent Kinetic Assay
Dilution and mixing steps: total reaction volume: 100 μL
100 μM substrate dilution in 1×PBS was prepared, and
Fluorescence Readings: Readings at λex 320 nm and λem 420 nm are taken every 40 sec for 30 min at room temperature and the linear slope for substrate cleavage rate (vi) determined.

Chain of human BACE1 (P56817 46-501): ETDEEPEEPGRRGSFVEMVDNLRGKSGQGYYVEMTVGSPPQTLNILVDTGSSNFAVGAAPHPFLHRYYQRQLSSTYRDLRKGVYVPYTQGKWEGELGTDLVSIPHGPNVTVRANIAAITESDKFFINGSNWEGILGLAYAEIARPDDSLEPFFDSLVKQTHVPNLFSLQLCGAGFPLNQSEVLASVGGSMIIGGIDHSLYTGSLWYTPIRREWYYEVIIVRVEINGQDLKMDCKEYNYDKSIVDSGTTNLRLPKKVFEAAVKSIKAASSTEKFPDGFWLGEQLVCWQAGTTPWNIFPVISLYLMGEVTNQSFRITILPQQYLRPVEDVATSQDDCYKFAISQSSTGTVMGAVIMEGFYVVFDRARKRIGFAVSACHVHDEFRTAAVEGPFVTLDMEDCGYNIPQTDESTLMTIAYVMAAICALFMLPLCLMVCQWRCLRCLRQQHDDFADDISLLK

| Compound | melting point [°C] | BACE 1 IC50 μM [1] | IC50 [1] [µM] |
| --- | --- | --- | --- |
| Nc1cccc(Cn2c(-c3ccc(Oc4ncccn4)cc3)ccc2-c2ccccc2Cl)n1 (as salt: hydrochloride) [Example 31, 6-{2-(2-Chloro-phenyl)-5-[4-(Pyrimidin-2-yloxy)-phenyl]-pyrrol-1-ylmethyl}-pyridin-2-ylamine hydrochloride] | 135 to 140 |  |  |
| Nc1cccc(Cn2c(-c3ccc(Oc4nccs4)cc3)ccc2-c2ccccc2Cl)n1 (as salt: hydrochloride) [Example 32, 6-{2-(2-Chloro-phenyl)-5-[4-(thiazol-2-yloxy)-phenyl]-pyrrol-1-ylmethyl}-pyridin-2-ylamine hydrochloride] | 126 to 130 |  |  |
| Nc1cccc(Cn2c(-c3ccc(Oc4ccc(Br)cc4)cc3)ccc2-c2ccccc2Cl)n1 (as salt: hydrochloride) [Example 38, 6-[2-[4-(4-Bromophenoxy)phenyl]-5-(2-chlorophenyl)pyrrol-1-ylmethyl]pyridin-2-ylamine hydrochloride] | 130 to 138 |  |  |
| CCCCCOc1ccc(-c2ccc(-c3ccccc3Cl)n2Cc2ccc(OC)c(NCCCO)n2)cc1 (as salt: hydrochloride) [Example 41, 3-{6-[2-(2-Chloro-phenyl)-5-(4-pentyloxy-phenyl)-pyrrol-1-ylmethyl]-3-methoxy-pyridin-2-ylamino}-propan-1-ol hydrochloride] | 86 to 88 |  |  |
| Nc1cccc(Cn2c(-c3ccc(-c4ccccc4)cc3)ccc2-c2ccccc2Cl)n1 [Example 27, 6-[2-Biphenyl-4-yl-5-(2-chlorophenyl)pyrrol-1-ylmethyl]pyridin-2-ylamine] |  | D (D = >5.0 μM-0.10 = μM) |  |
| Nc1cccc(Cn2c(-c3ccc(-c4cccnc4)cc3)ccc2-c2ccccc2Cl)n1 [Example 28] | 163 to 166 |  | 0.11 to 1 |
| Nc1cccc(Cn2c(-c3ccc(-c4cncnc4)cc3)ccc2-c2ccccc2Cl)n1 [Example 29, 6-[2-(2-Chloro-phenyl)-5-(4-pyrimidin-5-yl-phenyl)-pyrrol-1-ylmethyl]-pyridin-2-ylamine] |  |  | 0.11 to 1 |
| Nc1cccc(Cn2c(-c3ccc(Oc4ncccn4)cc3)ccc2-c2ccccc2Cl)n1 [Example 31, 6-{2-(2-Chloro-phenyl)-5-[4-(Pyrimidin-2-yloxy)-phenyl]-pyrrol-1-ylmethyl}-pyridin-2-ylamine hydrochloride] |  |  | 1.1 to 5 |
| Nc1cccc(Cn2c(-c3ccc(Oc4nccs4)cc3)ccc2-c2ccccc2Cl)n1 [Example 32, 6-{2-(2-Chloro-phenyl)-5-[4-(thiazol-2-yloxy)-phenyl]-pyrrol-1-ylmethyl}-pyridin-2-ylamine hydrochloride] |  |  | 0.11 to 1 |
| CC(=O)c1ccc(Oc2ccc(-c3ccc(-c4ccccc4Cl)n3Cc3cccc(N)n3)cc2)cc1 [Example 37, 1-(4-{4-[1-(6-Aminopyridin-2-ylmethyl)-5-(2-chlorophenyl)-1H-pyrrol-2-yl]phenoxy}-phenyl)ethanone hydrochloride] |  |  | 0.11 to 1 |
| Nc1cccc(Cn2c(-c3ccc(Oc4ccc(Br)cc4)cc3)ccc2-c2ccccc2Cl)n1 [Example 38, 6-[2-[4-(4-Bromophenoxy)phenyl]-5-(2-chlorophenyl)pyrrol-1-ylmethyl]pyridin-2-ylamine hydrochloride] |  | D (D = >5.0 μM-0.10 = μM) |  |
| CCCCCOc1ccc(-c2ccc(-c3ccccc3Cl)n2Cc2ccc(OC)c(NCCCO)n2)cc1 [Example 41, 3-{6-[2-(2-Chloro-phenyl)-5-(4-pentyloxy-phenyl)-pyrrol-1-ylmethyl]-3-methoxy-pyridin-2-ylamino}-propan-1-ol hydrochloride] |  | D (D = >5.0 μM-0.10 = μM) |  |
| CCCCCOc1ccc(-c2ccc(-c3ccccc3Cl)n2Cc2ccc(OCCCO)c(N)n2)cc1 [Example 43A, 3-{(2-Amino-6-[2-(2-chlorophenyl)-5-(4-pentyloxyphenyl)pyrrol-1-ylmethyl]pyridin-3-yloxy}propan-1-ol hydrochloride] |  | D (D = >5.0 μM-0.10 = μM) |  |
| CCCCCOc1ccc(-c2ccc(-c3ccccc3Cl)n2Cc2ccc(OCCCC#N)c(N)n2)cc1 [Example 43B, 4-{2-Amino-6-[2-(2-chlorophenyl)-5-(4-pentyloxyphenyl)pyrrol-1-ylmethyl]-pyridin-3-yloxy}butyronitrile hydrochloride] |  | D (D = >5.0 μM-0.10 = μM) |  |
| Nc1nc(Cn2c(-c3ccc(Br)cc3)ccc2-c2ccccc2Cl)ccc1OCCO [Example 47, 2-{2-Amino-6-[2-(4-bromo-phenyl)-5-(2-chloro-phenyl)-pyrrol-1-ylmethyl]-pyridin-3-yloxy}-ethanol] | 80 to 82 |  | 0.11 to 1 |
| CCCOc1ccc(-c2ccc(-c3ccccc3Cl)n2Cc2ccc(OCCO)c(N)n2)cc1 [Example 54, 2-[(2-amino-6-{[2-(2-chlorophenyl)-5-(4-propoxyphenyl)-1H-pyrrol-1-yl]methyl}pyridine-3-yl)oxy]ethanol] | 89 to 92 |  | 0.11 to 1 |
| CCCOc1ccc(-c2ccc(-c3ccccc3)n2Cc2cccc(N)n2)cc1 [Example 56, 6-{[2-phenyl-5-(4-propoxyphenyl)-1H-pyrrol-1-yl]methyl}pyridin-2-amine] | 106 to 107 |  | 1.1 to 5 |
| CCOC(=O)c1ccc(-c2ccc(-c3ccc(F)cc3)n2Cc2cccc(N)n2)cc1 [Example 57, Ethyl 4-[1-[(6-aminopyridin-2-yl)methyl]-5-(4-fluorophenyl)-1H-pyrrol-2-yl]benzoate] | 172 to 173 | D (D = >5.0 μM-0.10 = μM) |  |

Now from value to compound:

| melting point [°C] | BACE 1 IC50 μM [1] | IC50 [1] [µM] | Compound |
| --- | --- | --- | --- |
| 145 to 147 |  |  | CCCCCNc1ccc(-c2ccc(-c3ccccc3Cl)n2Cc2cccc(N)n2)cc1 (as salt: hydrochloride) [Example 53, 6-[2-(2-Chloro-phenyl)-5-(4-pentylamino-phenyl)-pyrrol-1-ylmethyl]-pyridin-2-ylamine hydrochloride] |
| 108 to 118 | D (D = >5.0 μM-0.10 = μM) |  | Cc1cccc(C(=O)Nc2ccc(-c3ccc(-c4ccccc4Cl)n3Cc3cccc(N)n3)cc2)c1 [Example 1, N-{4-[1-(6-Amino-pyridin-2-ylmethyl)-5-(2-chloro-phenyl)-1H-pyrrol-2-yl]-phenyl}-3-methyl-benzamide] |
| 116 to 122 | D (D = >5.0 μM-0.10 = μM) |  | Nc1cccc(Cn2c(-c3ccc(NC(=O)c4cccc(Br)c4)cc3)ccc2-c2ccccc2Cl)n1 [Example 2, N-{4-[1-(6-Amino-pyridin-2-ylmethyl)-5-(2-chloro-phenyl)-1H-pyrrol-2-yl]-phenyl}-3-bromo-benzamide] |
|  | D (D = >5.0 μM-0.10 = μM) |  | Nc1cccc(Cn2c(-c3ccc(NC(=O)c4ccccc4)cc3)ccc2-c2ccccc2Cl)n1 [Example 3, N-{4-[1-(6-Amino-pyridin-2-ylmethyl)-5-(2-chloro-phenyl)-1H-pyrrol-2-yl]-phenyl}-benzamide] |
| 154 to 158 |  | 1.1 to 5 | Nc1cccc(Cn2c(-c3ccc(Br)cc3)ccc2-c2ccccc2Cl)n1 [Example 4, 6-[2-(4-bromo-phenyl)-5-(2-chloro-phenyl)-pyrrol-1-ylmethyl]-pyridin-2-ylamine] |
| 170 to 172 | D (D = >5.0 μM-0.10 = μM) |  | Nc1cccc(Cn2c(-c3ccc(O)cc3)ccc2-c2ccccc2Cl)n1 [Example 6, 4-[1-(6-Amino-pyridin-2-ylmethyl)-5-(2-chloro-phenyl)-1H-pyrrol-2-yl]-phenol] |
|  | D (D = >5.0 μM-0.10 = μM) |  | CCCCCCOc1ccc(-c2ccc(-c3ccccc3Cl)n2Cc2cccc(N)n2)cc1.Cl [Example 17, 6-[2-(2-Chloro-phenyl)-5-(4-hexyloxy-phenyl)-pyrrol-1-ylmethyl]-pyridin-2-ylamine hydrochloride] |
| 126 to 130 |  | 0.11 to 1 | Cl.N#CCCCCOc1ccc(-c2ccc(-c3ccccc3Cl)n2Cc2cccc(N)n2)cc1 [Example 19, 5-{4-[1-(6-Amino-pyridin-2-ylmethyl)-5-(2-chloro-phenyl)-1H-pyrrol-2-yl]-phenoxy}-pentanenitrile hydrochloride] |
| 98 to 106 |  | 1.1 to 5 | Cl.N#CCCCCCOc1ccc(-c2ccc(-c3ccccc3Cl)n2Cc2cccc(N)n2)cc1 [Example 20, 6-{4-[1-(6-Amino-pyridin-2-ylmethyl)-5-(2-chloro-phenyl)-1H-pyrrol-2-yl]-phenoxy}-hexanenitrile hydrochloride] |
|  | D (D = >5.0 μM-0.10 = μM) |  | CCCCCOc1ccc(-c2ccc(-c3ccccc3Cl)n2Cc2ccc(OC)c(N)n2)cc1 [Example 40, 6-[2-(2-Chlorophenyl)-5-(4-pentyloxyphenyl)-pyrrol-1-ylmethyl]-3-methoxypyridin-2-ylamine hydrochloride] |
|  | D (D = >5.0 μM-0.10 = μM) |  | CCCCCOc1ccc(-c2ccc(-c3ccccc3Cl)n2Cc2ccc(O)c(N)n2)cc1 [Example 42A, 2-Amino-6-[2-(2-chlorophenyl)-5-(4-pentyloxyphenyl)pyrrol-1-ylmethyl]pyridin-3-ol hydrochloride] |
|  | D (D = >5.0 μM-0.10 = μM) |  | CCCCCOc1ccc(-c2ccc(-c3ccccc3Cl)n2Cc2ccc(N)c(N)n2)cc1 [Example 42B, 6-[2-(2-Chlorophenyl)-5-(4-pentyloxyphenyl)pyrrol-1-ylmethyl]pyridine-2,3-diamine hydrochloride] |
| 145 to 150 |  | 1.1 to 5 | CCCCC(=O)Nc1ccc(-c2ccc(-c3ccccc3Cl)n2Cc2cccc(N)n2)cc1 [Example 52, Pentanoic acid {4-[1-(6-amino-pyridin-2-ylmethyl)-5-(2-chlorophenyl)-1H-pyrrol-2-yl]-phenyl}-amide] |
|  |  | 1.1 to 5 | CCCCCNc1ccc(-c2ccc(-c3ccccc3Cl)n2Cc2cccc(N)n2)cc1 [Example 53, 6-[2-(2-Chloro-phenyl)-5-(4-pentylamino-phenyl)-pyrrol-1-ylmethyl]-pyridin-2-ylamine hydrochloride] |

From patent US7732457B2, “Amino-pyridines as inhibitors of β-secretase” (Wyeth LLC, priority 2005, dated 2010)
